# Source: BindingDB's records for doi:10.1016/j.ejmech.2018.10.048 (Touro University-California, 2019)
# Test: Inhibition of HIV1 gp41-induced cell-cell fusion between viral protein expressing human HL2/3 cells and TZM-bl target cells preincubated overnight with TZM-bl cells followed by co-incubation with HL2/3 cells for 6 hrs by luciferase reporter gene assay
row,Compound,IC50 [µM]
1,COC(=O)c1cc(F)cc(Cn2ccc3ccc(-c4ccc5ccn(Cc6cccc(C(=O)O)c6)c5c4)cc32)c1,0.8
2,COc1cccc(Cn2ccc3ccc(-c4ccc5c(C)cn(Cc6cccc(C(=O)O)c6)c5c4)cc32)c1,4
3,COC(=O)c1cccc(Cn2ncc3ccc(-c4ccc5ccn(Cc6cccc(C(=O)O)c6)c5c4)cc32)c1,0.3
4,Cn1ccc2ccc(-c3ccc4ccn(Cc5cc(F)cc(C(=O)O)c5)c4c3)cc21,3.6
5,COC(=O)c1cccc(Cn2ccc3ccc(-c4ccc5cnn(Cc6cccc(C(=O)O)c6)c5c4)cc32)c1,2.8
6,COC(=O)c1ccc(Cn2ccc3ccc(-c4ccc5ccn(Cc6cccc(C(=O)O)c6)c5c4)cc32)c(OC)c1,2
7,Cn1ncc2ccc(-c3ccc4ccn(Cc5cc(F)cc(C(=O)O)c5)c4c3)cc21,7
8,Cc1cn(C(=O)OC(C)(C)C)c2cc(-c3ccc4ccn(Cc5cccc(C(=O)O)c5)c4c3)ccc12,2.6
9,Cc1ccc(S(=O)(=O)n2ccc3ccc(-c4ccc5ccn(Cc6cccc(C(=O)O)c6)c5c4)cc32)cc1,1.3
10,Cn1ccc2ccc(-c3ccc4c(c3)N(Cc3cccc(C(=O)O)c3)CC4)cc21,> 10
11,Cn1ccc2ccc(-c3ccc4cnn(Cc5cc(F)cc(C(=O)O)c5)c4c3)cc21,4.6
12,CN(C(=O)OC(C)(C)C)c1cccc(-c2ccc3ccn(Cc4cccc(C(=O)O)c4)c3c2)c1,5.9
13,COC(=O)c1cc(Cn2ccc3ccc(-c4ccc5ccn(Cc6cccc(C(=O)O)c6)c5c4)cc32)cc(C(=O)OC)c1,0.2
14,CC(C)(C)OC(=O)n1ccc2ccc(-c3ccc4ccn(Cc5cccc(C(=O)O)c5)c4c3)cc21,0.8
15,CC(C)(C)OC(=O)N1CCC(Cn2ccc3ccc(-c4ccc5ccn(Cc6cccc(C(=O)O)c6)c5c4)cc32)CC1,1.2
16,O=C(O)c1cccc(Cn2ccc3ccc(-c4ccc5ccn(Cc6cccc([N+](=O)[O-])c6)c5c4)cc32)c1,2
17,Cn1ncc2ccc(-c3ccc4cnn(Cc5ccc(F)c(C(=O)O)c5)c4c3)cc21,> 25
18,CC(C)(C)OC(=O)Nc1cccc(Cn2ccc3ccc(-c4ccc5ccn(Cc6cccc(C(=O)O)c6)c5c4)cc32)c1,2
19,Nc1ccc(Cn2ccc3ccc(-c4ccc5ccn(Cc6cccc(C(=O)O)c6)c5c4)cc32)cc1,3
20,COc1cc(Cn2ccc3ccc(-c4ccc5ccn(Cc6cccc(C(=O)O)c6)c5c4)cc32)cc(C(=O)O)c1,8
21,COc1cccc(CN2CCc3ccc(-c4ccc5ccn(Cc6cccc(C(=O)O)c6)c5c4)cc32)c1,1
22,Cn1cc2ccc(-c3ccc4ccn(Cc5cc(F)cc(C(=O)O)c5)c4c3)cc2n1,28
23,CC(=O)Nc1cccc(Cn2ccc3ccc(-c4ccc5ccn(Cc6cccc(C(=O)O)c6)c5c4)cc32)c1,1
24,COc1cccc(Cn2ccc3cc(F)c(-c4ccc5ccn(Cc6cccc(C(=O)O)c6)c5c4)cc32)c1,3.5
25,COc1cccc(CNc2cccc(-c3ccc4ccn(Cc5cccc(C(=O)O)c5)c4c3)c2)c1,> 10
26,Cn1ccc2cc(F)c(-c3ccc4ccn(Cc5cc(F)cc(C(=O)O)c5)c4c3)cc21,2
